Measured values from US12503432B2, “Ionizable lipids for nucleic acid delivery” (Global Life Sciences Solutions Canada ULC, priority 2019, dated 2025).

Key:
[1] = test system: primary human T cells; assay: EPO mRNA LNP delivery to primary human T cells, Quantikine IVD Human Epo ELISA; assay type: cell-based
Method: Reagents were acquired from Quantikine, Minneapolis, MN. The assay was performed as directed on the Quantikine® IVD® ELISA Human Erythropoietin Immunoassay protocol in the package insert. Briefly; primary human T cells were isolated from fresh whole blood using a negative selection protocol and activated using a triple activator. Seven days post-activation, T cells were dosed with mRNA LNPs encoding EPO at […] mRNA per 500,000 cells and N/P 10. After 48 h of exposure, the T cells were harvested and lysed for cytosolic EPO and media supernatant was sampled for secreted EPO. Quantikine® Human Serum Controls were used.

[2] = LNP characterization: size and PDI by dynamic light scattering, mRNA encapsulation efficiency by RiboGreen assay; assay type: physicochemical
Method: Particle sizes and “polydispersity index” (PDI) of the lipid particle were measured by dynamic light scattering (DLS). PDI indicates the width of the particle distribution. This is a parameter calculated from a cumulative analysis of the (DLS)-measured intensity autocorrelation function assuming a single particle size mode and a single exponential fit to the autocorrelation function. […] The particles produced by mechanical micromixers such as the NanoAssemblr® Spark™ and NanoAssemblr® Benchtop (Precision NanoSystems Inc.) are substantially homogeneous in size assuming all other variables are neutral. A lower PDI indicates a more homogenous population of lipid particles. The Spark™ instrument is used in a screening setting to identify the lead compositions. Once the composition is selected, the lipid particle can be fine-tuned using the NanoAssemblr® Benchtop. Once the process parameters Flow Rate Ratio and Total Flow Rate is identified for the specific nanoparticle composition, the nanoparticle technology can be scaled up using the same process parameter values.
Lipid particles were also manufactured by a larger microfluidic mixer instrument, the NanoAssemblr® Ignite™ for testing. Briefly, 350 μL of mRNA was diluted using 100 mM sodium acetate buffer to the required concentration of 0.2 to 0.3 mg/mL. Lipid particle samples were then prepared by running both fluids, namely, nucleic acids in aqueous solvent and Lipid Mix in ethanol at a flow ratio of 3:1 and at a total flow rate of 12 ml/min in the microfluidic mixer. Following mixing in the microfluidic device, the post cartridge lipid nucleic acid particle sample was diluted into RNAse free tubes containing three to 40 volumes of phosphate buffered saline (PBS), pH 7.4. Ethanol was finally removed through dialysis in PBS, pH 7, or using Amicon™ centrifugal filters (Millipore, USA) at 3000 RPM, or using TFF systems. Once the required concentration was achieved, the lipid nucleic acid particles were filter sterilized using 0.2 μm filters in aseptic conditions. Final encapsulation efficiency was measured by the Ribogreen™ assay. Quant-iT™ RiboGreen® RNA Reagent and Kit (Invitrogen) following manufacturer directions.
Messenger RNA or plasmid nucleic acid therapeutic (NAT) as described below, was diluted using sodium acetate buffer to the required concentration. Lipid nucleic acid particle (LNAP) samples were then prepared by running both fluids using the NanoAssemblr® Spark instrument. Briefly, […] of nucleic acids in 100 mM sodium acetate buffer in a total volume of 32 μL was mixed with 16 μL of 37.5 mM lipid mix solution as required by the N/P ratios (4, 6, or 10 in illustrated examples). The microfluidically mixed lipid nucleic acid particles (LNAP) made in the instrument were immediately diluted down with 48 μL Ca++ and Mg++ free 1× PBS at pH 7.4 in the aqueous output well. These LNAP were immediately collected into microcentrifuge tubes containing 96 μL of the same buffer at pH 7.4. Encapsulation efficiency was measured by a modified Ribogreen™ assay (Quanti-iT RiboGreen™ RNA assay kit, Fisher). This information was used to establish the desired dosage.
After the lipid particles were made as described in Example 17, particle size (hydrodynamic diameter of the particles) was determined by Dynamic Light Scattering (DLS) using a ZetaSizer™ Nano ZS™ (Malvern Instruments, UK). He/Ne laser of 633 nm wavelength was used as the light source. Data were measured from the scattered intensity data conducted in backscattering detection mode (measurement angle=173). Measurements were an average of 10 runs of two cycles each per sample. Z-Average size was reported as the particle size, and is defined as the harmonic intensity averaged particle diameter. These LNP characteristics, as well as the results of the mRNA encapsulation efficiency for various Lipid Mixes are also described in the application are shown in Tables 4, 5 and 6. […]

[3] = 5-moU EPO encoded LNPs, IL:DSPC:cholesterol:DMG-PEG (50:10:38.5:1.5), N/P 6
[4] = OVA encoded LNPs, payload 5-moU OVA, LM02, N/P 8
[5] = OVA encoded LNPs, payload WT OVA, LM02, N/P 8
[6] = Table 4 LNPs, payload and lipid mix not stated

- Diameter (Z. ave, nm) [2, 3]: 65.1 nm
- Encapsulation Efficiency (%) [2, 3]: 98.8%
- Polydispersity Index (PDI) [2, 3]: 0.04
- Diameter (Z. ave, nm) [2, 4]: 65.8 nm
- Encapsulation Efficiency (%) [2, 4]: 95.2%
- Polydispersity Index (PDI) [2, 4]: 0.07
- Diameter (Z. ave, nm) [2, 5]: 67.5 nm
- Encapsulation Efficiency (%) [2, 5]: 95.4%
- Polydispersity Index (PDI) [2, 5]: 0.03
- Diameter (Z. ave, nm) [2, 6]: 77.2 nm
- Encapsulation Efficiency (%) [2, 6]: 88.6%
- Polydispersity Index (PDI) [2, 6]: 0.07
Compound: CCCCC/C=C\C/C=C\CCCCCCCCC(CCCCCCCC/C=C\C/C=C\CCCCC)OC(=O)CCCN(C)C [MC3, DLin-MC3-DMA, reference compound]
- cytosolic EPO ([1]; T cell lysate, 48 h exposure, N/P 10, FIG. 5): no cytosolic EPO
- secreted EPO ([1]; media supernatant, 48 h exposure, N/P 10, FIG. 5): about 545 mlU/mL
- Fold increase in EPO concentration relative to MC3 ([1]; primary human T cells, 48 hours): 1.0
- EPO concentration (mIU/mL), 48 hours ([1]; primary human T cells, 48 hours, EPO mRNA LNP, N/P 10): 545.2 mIU/mL
